Earlier results in patent publication US11260028B2, “Nanosome formulations of aprepitant and methods and applications thereof” (ForDoz Pharma Corp., priority 2017, dated 2022).

water solubility: poor
Structure (SMILES): C[C@@H](O[C@H]1OCCN(Cc2n[nH]c(=O)[nH]2)[C@H]1c1ccc(F)cc1)c1cc(C(F)(F)F)cc(C(F)(F)F)c1 [aprepitant, 5-[[(2R,3S)-2-[(1R)-1-[3,5-bis(trifluoromethyl)phenyl]ethoxy]-3-(4-fluorophenyl)-4-morpholinyl]methyl]-1,2-dihydro-3H-1,2,4-triazol-3-one]
